Results as given in patent US7968556B2, “Heteroaryl compounds, compositions thereof, and methods of treatment therewith” (Signal Pharmaceuticals, LLC, priority 2006, dated 2011).

Columns and labels:
mTOR = mTOR (Homo sapiens, UniProt P42345); assay: mTOR HTR-FRET Assay; type: biochemical
Summary of the method: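 TOR enzyme fraction preincubated 30 min at room temperature with compound, then reaction started with GST-p70S6 kinase fragment substrate (97 nM working stock) plus ATP/Mn2+ and run 2 h at room temperature in Tris pH 7.4 buffer. Stopped with EDTA; phospho-substrate detected by HTRF antibody reagent after 5 h to overnight.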

Syk = molecular target: T1, Syk (Homo sapiens, UniProt P43405); assay: Syk HTRF Assay; type: biochemical
T1 construct: purchased Cama Biosciences (so in the source)
Protocol: 5 μl/well DMSO is added to Column 2 Wells A-0 and 29.5 μl to well P2 of Greiner 384-well polypropylene plate. 20 μl/well DMSO is added to Columns 1 and 3-12.
25 mM compound solutions are prepared by the addition of 25 μl of 30 mM compound to Column 2 and 0.5 μl 30 mM reference control to well P2.
Serial dilution is then performed by the following steps: (i) compounds in Column 2 are mixed by pipetting 20 μl up and down 6×; (ii) 10 μl/well compounds in DMSO are transferred from one column to the next column for Columns 2-11; (iii) wells are mixed by pipetting 20 μl up and down 6×; (iv) tips washed 3×25 μl DMSO, 2×25 μl next DMSO.
The following buffers are prepared:
Dilution Buffer: 50 mM HEPES pH 7.6; 1 mM DTT; 10 mM MgCl2; 0.01% Triton X100; 0.01% BSA; 0.1 mM EDTA.
Enzyme Mix in Dilution Buffer: 8.621 ng/ml Syk (Cama Biosciences 08-176).
Start Mix in Dilution Buffer: 87.5 μM ATP; 80 nM Substrate Peptide (American Peptide Company 332722).
14.5 μl/well Enzyme Mix or Dilution Buffer (Background Controls) is added to Costar 384-well black plates.
Compound addition and mixture is performed by the following steps: (i) 0.5 μl/well DMSO/compounds in DMSO transferred from Greiner 384-well polypropylene plate to left half of assay plate containing 14.5 μl/well Enzyme Mix and Dilution Buffer; (ii) Mix by pipetting 10 μl up and down 4×; (iii) tips are washed 4×10 μl in DMSO, 2×20 μl in other DMSO; (iv) steps i-iii are repeated with transfer to right half of assay plate; (v) steps i-iv are repeated with each compound/assay plate until all plates are completed.
10 μl/well Start Mix is added and incubated at room temperature on shaker for 2 minutes (1 hour total reaction time).
Stop Solution in Dilution Buffer: 120 mM EDTA
Antibody Mix in Dilution Buffer: 4.86 μg/ml DyLight 647 Streptavidin (Pierce 21824); 1 μg/ml Lance Eu-Anti-Phosphotyrosine (PerkinElmer AD0069).
5 μl/well[…] is added and incubated at room temperature on shaker for 2 minutes.
[…] Antibody Mix is added and Incubated at room temperature on shaker for 2 minutes (4 hours to overnight total time).
Plates are read at 665 nm and 620 nm emission on Analyst GT protocol HTRF_SP_A or EnVision protocol Steve's TR-FRET.

melting point [°C]	IC50 (mTOR) [µM]	IC50 (Syk) [µM]	Compound
343 to 345	0.1 to 5		NC(=O)c1nc(-c2cccnc2)nc2c1[nH]c(=O)n2[C@H]1CC[C@H](O)CC1 [Compound 50, 9-(trans-4-Hydroxycyclohexyl)-8-oxo-2-(pyridin-3-yl)-8,9-dihydro-7H-purine-6-carboxamide]
362 to 363	5.1 to 10	> 30	COc1ccccc1-n1c(=O)[nH]c2c(C(N)=O)nc(-c3ccc(O)cc3)nc21 [Compound 8, 2-(4-hydroxyphenyl)-9-(2-methoxyphenyl)-8-oxo-8,9-dihydro-7H-purine-6-carboxamide]
360 to 362	> 30	> 30	COc1ccccc1-n1c(=O)[nH]c2c(C(N)=O)nc(-c3ccnc(O)c3)nc21 [Compound 13, 2-(2-hydroxypyridin-4-yl)-9-(2-methoxyphenyl)-8-oxo-8,9-dihydro-7H-purine-6-carboxamide]
